Test results as given in patent publication US20240166652A1, “MODULATORS OF THE INTEGRATED STRESS PATHWAY” (Calico Life Sciences LLC, priority 2017, published 2024).

system: ATF4 luciferase reporter in HEK293T cells; assay: ATF4-Luc assay (ATF4 luciferase reporter, tunicamycin-treated HEK293T cells); type: cell-based, human; details: Homo sapiens, HEK-293T; HEK293T cells carrying the ATF4 luciferase reporter, 1 μg/mL tunicamycin, 7 hours

| SMILES | EC50 [nM] |
| --- | --- |
| O=C(COc1ccc(Cl)c(F)c1)NC12CC(NC(=O)COc3ccccn3)(C1)C2 [Compound 402, 2-(4-chloro-3-fluorophenoxy)-N-(3-{2-[(pyridin-2-yl)oxy]acetamido}bicyclo[1.1.1]pentan-1-yl)acetamide] | 50 to 250 |
| CC(=O)NC1CC2(NC(=O)COc3ccc(Cl)c(F)c3)CCC1(NC(=O)COc1ccc(Cl)c(F)c1)CC2 (stereo not shown) [Compound 358, N,N′-(2-acetamidobicyclo[2.2.2]octane-1,4-diyl)bis[2-(4-chloro-3-fluorophenoxy)acetamide]] | < 10 |
| Cc1cc(OCC(=O)NC23CC(NC(=O)COc4ccc(Cl)c(F)c4)(C2)C3)ncc1Cl [Compound 216, 2-(4-chloro-3-fluorophenoxy)-N-(3-{2-[(5-chloro-4-methylpyridin-2-yl)oxy]acetamido}bicyclo[1.1.1]pentan-1-yl)acetamide] | 50 to 250 |
| O=C(COc1ccc(F)c(C(F)(F)F)c1)NC12CCC(NC(=O)COc3ccc(F)cc3)(CC1)[C@@H](O)C2 [Compound 847, 2-(4-fluorophenoxy)-N-[(2S)-4-{2-[4-fluoro-3-(trifluoromethyl)phenoxy]acetamido}-2-hydroxybicyclo[2.2.2]octan-1-yl]acetamide] | < 10 |
| O=C(COc1ccc(Cl)c(F)c1)NC12CCC(NC(=O)COc3nc4ccccc4s3)(CC1)[C@@H](O)C2 [Compound 512, 2-[(1,3-benzothiazol-2-yl)oxy]-N-{(2S)-4-[2-(4-chloro-3-fluorophenoxy)acetamido]-2-hydroxybicyclo[2.2.2]octan-1-yl}acetamide] | > 2000 |
| O=C(COc1ccc2c(c1)OC(F)(F)O2)NC12CCC(NC(=O)COc3ccc(F)c(F)c3)(CC1)[C@@H](O)C2 [Compound 804, 2-[(2,2-difluoro-2H-1,3-benzodioxol-5-yl)oxy]-N-{(3S)-4-[2-(3,4-difluorophenoxy)acetamido]-3-hydroxybicyclo[2.2.2]octan-1-yl}acetamide] | < 10 |
| CCc1nc(C)ccc1OCC(=O)NC12CC(NC(=O)COc3ccc(Cl)c(F)c3)(C1)C2 [Compound 239, 2-(4-chloro-3-fluorophenoxy)-N-(3-{2-[(2-ethyl-6-methylpyridin-3-yl)oxy]acetamido}bicyclo[1.1.1]pentan-1-yl)acetamide] | > 2000 |
| CC(C)(O)c1ccc(OCC(=O)NC23CC(NC(=O)COc4ccc(Cl)c(F)c4)(C2)C3)cc1 [Compound 407, 2-(4-chloro-3-fluorophenoxy)-N-(3-{2-[4-(2-hydroxypropan-2-yl)phenoxy]acetamido}bicyclo[1.1.1]pentan-1-yl)acetamide] | 50 to 250 |
| O=C(/C=C/c1ccc(Cl)c(Cl)c1)NC12CC(NC(=O)/C=C/c3ccc(Cl)c(Cl)c3)(C1)C2 [Compound 367, (2E,2′E)-N,N′-(bicyclo[1.1.1]pentane-1,3-diyl)bis[3-(3,4-dichlorophenyl)prop-2-enamide]] | > 2000 |
| O=C(/C=C/c1ccc(C(F)(F)F)cc1)NC12CC(NC(=O)/C=C/c3ccc(C(F)(F)F)cc3)(C1)C2 [Compound 370, (2E,2′E)-N,N′-(bicyclo[1.1.1]pentane-1,3-diyl)bis{3-[4-(trifluoromethyl)phenyl]prop-2-enamide}] | > 2000 |
| COc1ccc(OCC(=O)NC23CC(NC(=O)COc4ccc(Cl)c(F)c4)(C2)C3)c(C)n1 [Compound 252, 2-(4-chloro-3-fluorophenoxy)-N-(3-{2-[(6-methoxy-2-methylpyridin-3-yl)oxy]acetamido}bicyclo[1.1.1]pentan-1-yl)acetamide] | 50 to 250 |
| CC(=O)O[C@@H]1CC2(NCCOc3ccc(Cl)c(F)c3)CCC1(NC(=O)COc1ccc(Cl)c(F)c1)CC2 [Compound 450, (2R)-1-[2-(4-chloro-3-fluorophenoxy)acetamido]-4-{[2-(4-chloro-3-fluorophenoxy)ethyl]amino}bicyclo[2.2.2]octan-2-yl acetate] | 10 to 50 |
| O=C(COc1ccc(Cl)c(F)c1)NC12CCC(NC(=O)Cc3ccc(C(F)(F)F)cc3)(CC1)C(O)C2 (stereo not shown) [Compound 322, 2-(4-chloro-3-fluorophenoxy)-N-(3-hydroxy-4-{2-[4-(trifluoromethyl)phenyl]acetamido}bicyclo[2.2.2]octan-1-yl)acetamide] | 50 to 250 |
| O=C(COc1ccc(Cl)c(Cl)c1)NC12CCC(NC(=O)COc3ccc(Cl)c(Cl)c3)(CC1)C2 [Compound 526, N,N′-(bicyclo[2.2.1]heptane-1,4-diyl)bis[2-(3,4-dichlorophenoxy)acetamide]] | 10 to 50 |
| Cc1cc(OCC(=O)NC23CCC(NC(=O)COc4ccc(Cl)c(F)c4)(CC2)C[C@@H]3O)cnc1C [Compound 394, 2-(4-chloro-3-fluorophenoxy)-N-[(3S)-4-{2-[(5,6-dimethylpyridin-3-yl)oxy]acetamido}-3-hydroxybicyclo[2.2.2]octan-1-yl]acetamide] | < 10 |
| Cc1ccc(OCC(=O)NC23CC(NC(=O)COc4ccc(Cl)c(F)c4)(C2)C3)cc1C [Compound 456, 2-(4-chloro-3-fluorophenoxy)-N-{3-[2-(3,4-dimethylphenoxy)acetamido]bicyclo[1.1.1]pentan-1-yl}acetamide] | < 10 |

| SMILES | EC50 [nM] |
| --- | --- |
| O=C(COc1ccc(Cl)cc1)NC12CCC(NC(=O)COc3ccc(F)c(C(F)(F)F)c3)(CC1)[C@@H](O)C2 [Compound 830, 2-(4-chlorophenoxy)-N-[(3S)-4-{2-[4-fluoro-3-(trifluoromethyl)phenoxy]acetamido}-3-hydroxybicyclo[2.2.2]octan-1-yl]acetamide] | < 10 |
| COc1cccc(CCC(=O)NC23CC(NC(=O)COc4ccc(Cl)c(F)c4)(C2)C3)c1 [Compound 461, N-{3-[2-(4-chloro-3-fluorophenoxy)acetamido]bicyclo[1.1.1]pentan-1-yl}-3-(3-methoxyphenyl)propanamide] | > 2000 |
| O=C(COc1cncc(C(F)(F)F)c1)NC12CC(NC(=O)COc3ccc4c(c3)OC(F)(F)O4)(C1)C2 [Compound 269, 2-[(2,2-difluoro-2H-1,3-benzodioxol-5-yl)oxy]-N-[3-(2-{[5-(trifluoromethyl)pyridin-3-yl]oxy}acetamido)bicyclo[1.1.1]pentan-1-yl]acetamide] | 10 to 50 |
| O=C(COc1ccc(Cl)c(CO)c1)NC12CCC(NC(=O)COc3ccc(Cl)c(CO)c3)(CC1)[C@@H](O)C2 [Compound 592, N,N′-[(2S)-2-hydroxybicyclo[2.2.2]octane-1,4-diyl]bis{2-[4-chloro-3-(hydroxymethyl)phenoxy]acetamide}] | 500 to 2000 |
| COC(=O)c1cc(OCC(=O)NC23CCC(NC(=O)COc4ccc(Cl)c(F)c4)(CC2)C[C@@H]3O)no1 [Compound 519, methyl 3-[2-({(2S)-4-[2-(4-chloro-3-fluorophenoxy)acetamido]-2-hydroxybicyclo[2.2.2]octan-1-yl}amino)-2-oxoethoxy]-1,2-oxazole-5-carboxylate] | > 2000 |
| O=C(COc1ccc(Cl)c(F)c1)NC12CCC(OCc3ccc(Cl)cc3)(CC1)CC2O (stereo not shown) [Compound 565, 2-(4-chloro-3-fluorophenoxy)-N-{4-[(4-chlorophenyl)methoxy]-2-hydroxybicyclo[2.2.2]octan-1-yl}acetamide] | 500 to 2000 |
| O=C(COc1ccc(Cl)c(F)c1)NC12CCC(NC(=O)COc3ccc(Cl)c(F)c3)(CC1)C(F)C2 (stereo not shown) [Compound 365, N,N′-(2-fluorobicyclo[2.2.2]octane-1,4-diyl)bis[2-(4-chloro-3-fluorophenoxy)acetamide]] | < 10 |
| O=C(COc1ccc(Cl)c(F)c1)NC12CC(NS(=O)(=O)CCc3ccc(F)cc3)(C1)C2 [Compound 480, 2-(4-chloro-3-fluorophenoxy)-N-(3-{[2-(4-fluorophenyl)ethanesulfonyl]amino}bicyclo[1.1.1]pentan-1-yl)acetamide] | > 2000 |
| O=C(COc1ccc(C(F)(F)F)nc1)NC12CCC(NC(=O)COc3ccc(Cl)c(Cl)c3)(CC1)[C@@H](O)C2 [Compound 583, 2-(3,4-dichlorophenoxy)-N-[(2S)-2-hydroxy-4-(2-{[6-(trifluoromethyl)pyridin-3-yl]oxy}acetamido)bicyclo[2.2.2]octan-1-yl]acetamide] | < 10 |
| O=C(COc1ccc(F)c(OC(F)(F)F)c1)NC12CCC(NC(=O)COc3ccc(Cl)c(F)c3)(CC1)[C@@H](O)C2 [Compound 820, 2-(4-chloro-3-fluorophenoxy)-N-[(2S)-4-{2-[4-fluoro-3-(trifluoromethoxy)phenoxy]acetamido}-2-hydroxybicyclo[2.2.2]octan-1-yl]acetamide] | < 10 |
| CN(C)c1cccc(CCOCC(=O)NC23CC(NC(=O)COc4ccc(Cl)c(Cl)c4)(C2)C3)c1 [Compound 170, 2-(3,4-dichlorophenoxy)-N-[3-(2-{2-[3-(dimethylamino)phenyl]ethoxy}-acetamido)bicyclo[1.1.1]pentan-1-yl]acetamide] | > 2000 |
| O=C(COc1ccc(F)c(F)c1)NC12CCC(NC(=O)COc3ccc(C(F)(F)F)c(F)c3)(CC1)[C@@H](O)C2 [Compound 833, 2-(3,4-difluorophenoxy)-N-[(3S)-4-{2-[3-fluoro-4-(trifluoromethyl)phenoxy]acetamido}-3-hydroxybicyclo[2.2.2]octan-1-yl]acetamide] | < 10 |
| CC(C)c1cc(OCC(=O)NC23CCC(NC(=O)COc4ccc(Cl)c(F)c4)(CC2)C[C@@H]3O)cc(C(C)C)c1 [Compound 496, 2-(4-chloro-3-fluorophenoxy)-N-[(3S)-4-{2-[3,5-di(propan-2-yl)phenoxy]acetamido}-3-hydroxybicyclo[2.2.2]octan-1-yl]acetamide] | 500 to 2000 |
| Cc1ccc(CC(=O)NC23CC(NC(=O)COc4ccc(Cl)c(F)c4)(C2)C3)cn1 [Compound 210, 2-(4-chloro-3-fluorophenoxy)-N-{3-[2-(6-methylpyridin-3-yl)acetamido]bicyclo[1.1.1]pentan-1-yl}acetamide] | > 2000 |
| CS(=O)(=O)OC1CC2(NC(=O)COc3ccc(Cl)c(F)c3)CCC1(NC(=O)COc1ccc(Cl)c(F)c1)CC2 (stereo not shown) [Compound 344, 1,4-bis[2-(4-chloro-3-fluorophenoxy)acetamido]bicyclo[2.2.2]octan-2-yl methanesulfonate] | < 10 |
